# What was measured:
# Type in all cases: cell-based, human
# PC-3 = experiment: NCI screening panel, PC-3 (Prostate Cancer)
# Method: (§1) Representative compounds of Formula I were screened using the National Cancer Institute (NCI) screening panel, which consists of a panel of human tumor cell lines, representing leukemia, melanoma, and cancers of the lung, colon, ovary, breast, prostate and renal system.
# (§2) After 24 h, two plates of each cell line are fixed in situ with TCA, to represent a measurement of the cell population for each cell line at the time of drug addition (Tz). Experimental drugs are solubilised in dimethyl sulfoxide at 400-fold the desired final maximum test concentration and stored frozen prior to use. At the time of drug addition, an aliquot of frozen concentrate is thawed and diluted to twice the desired final maximum test concentration with complete medium containing 50 μg/mL gentamicin. Additional four, 10-fold or ½ log serial dilutions are made to provide a total of five drug concentrations plus control. Aliquots of 100 μl of these different drug dilutions are added to the appropriate microtiter wells already containing 100 μl of medium, resulting in the required final drug concentrations.
# (§3) Following drug addition, the plates are incubated for an additional 48 h at 37° C., 5% CO2, 95% air, and 100% relative humidity. For adherent cells, the assay is terminated by the addition of cold TCA (trichloroacetic acid). Cells are fixed in situ by the gentle addition of 50 μl of cold 50% (w/v) TCA (final concentration, 10% TCA) and incubated for 60 minutes at 4° C. The supernatant is discarded, and the plates are washed five times with tap water and air dried. Sulforhodamine B (SRB) solution (100 μl) at 0.4% (w/v) in 1% acetic acid is added to each well, and plates are incubated for 10 minutes at room temperature. After staining, unbound dye is removed by washing five times with 1% acetic acid and the plates are air dried. Bound stain is subsequently solubilised with 10 mM trizma base, and the absorbance is read on an automated plate reader at a wavelength of 515 nm. For suspension cells, the methodology is the same except that the assay is terminated by fixing settled cells at the bottom of the wells by gently adding 50 μl of 80% TCA (final concentration, 16% TCA). Using the seven absorbance measurements [time zero, (Tz), control growth, (C), and test growth in the presence of drug at the five concentration levels (Ti)], the percentage growth is calculated at each of the drug concentrations levels. Percentage growth inhibition is calculated as: [(Ti−Tz)/(C−Tz)]×100 for concentrations for which Ti>/=Tz and [(Ti−Tz)/Tz]×100 for concentrations for which Ti<Tz.
# (§4) Three dose response parameters are calculated for each experimental agent. Growth inhibition of 50% (GI50) is calculated from [(Ti−Tz)/(C−Tz)]×100=50, which is the drug concentration resulting in a 50% reduction in the net protein increase (as measured by SRB staining) in control cells during the drug incubation. The drug concentration resulting in total growth inhibition (TGI) is calculated from Ti=Tz. The LC50 (concentration of drug resulting in a 50% reduction in the measured protein at the end of the drug treatment as compared to that at the beginning) indicating a net loss of cells following treatment is calculated from [(Ti−Tz)/Tz]×100=−50. Values are calculated for each of these three parameters if the level of activity is reached. However, if the effect is not reached or is exceeded, the value for that parameter is expressed as greater or less than the maximum or minimum concentration tested.
# SF-268 = experiment: NCI screening panel, SF-268 (CNS Cancer)
# Method: as §1, §2, §3, §4
# OVCAR-4 = experiment: NCI screening panel, OVCAR-4 (Ovarian Cancer)
# Method: as §1, §2, §3, §4
# SNB-75 = experiment: NCI screening panel, SNB-75 (CNS Cancer)
# Method: as §1, §2, §3, §4
# UACC-62 = experiment: NCI screening panel, UACC-62 (Melanoma)
# Method: as §1, §2, §3, §4
# MOLT-4 = experiment: NCI screening panel, MOLT-4 (Leukemia)
# Method: as §1, §2, §3, §4
# OVCAR-3 = experiment: NCI screening panel, OVCAR-3 (Ovarian Cancer)
# Method: as §1, §2, §3, §4
# MDA-MB-231/ATCC = experiment: NCI screening panel, MDA-MB-231/ATCC (Breast Cancer)
# Method: as §1, §2, §3, §4
# SN12C = experiment: NCI screening panel, SN12C (Renal Cancer)
# Method: as §1, §2, §3, §4
# LOX IMVI = experiment: NCI screening panel, LOX IMVI (Melanoma)
# Method: as §1, §2, §3, §4
Compound,Log10GI50 (PC-3),Log10TGI50 (PC-3),Log10GI50 (SF-268),Log10LC50 (SF-268),Log10TGI50 (SF-268),Log10GI50 (OVCAR-4),Log10TGI50 (OVCAR-4),Log10GI50 (SNB-75),Log10LC50 (SNB-75),Log10TGI50 (SNB-75),Log10GI50 (UACC-62),Log10LC50 (UACC-62),Log10TGI50 (UACC-62),Log10GI50 (MOLT-4),Log10TGI50 (MOLT-4),Log10GI50 (OVCAR-3),Log10LC50 (OVCAR-3),Log10TGI50 (OVCAR-3),Log10GI50 (MDA-MB-231/ATCC),Log10LC50 (MDA-MB-231/ATCC),other results
"CC(C)C[C@H](NC(=O)[C@H](COC(F)F)NC(=O)CN1CCOCC1)C(=O)N[C@@H](COC(F)F)C(=O)N[C@@H](CC(C)C)C(=O)[C@@]1(C)CO1 [Example 1, (2S)—N-[(1S)-1-(difluoromethoxymethyl)-2-[[(1S)-3-methyl-1-[(2R)-2-methyloxirane-2-carbonyl]butyl]amino]-2-oxo-ethyl]-2-[[(2S)-3-(difluoromethoxy)-2-[(2-morpholinoacetyl)amino]propanoyl]amino]-4-methyl-pentanamide]",−7.49,−6.81,−7.65,>−4.00,−7.17,−7.77,−6.60,−7.66,−5.88,−7.29,−7.60,>−4.00,−6.95,−7.57,−6.98,−7.69,−6.91,−7.34,−7.52,>−4.00,Log10LC50 (OVCAR-4): >−4.00; Log10LC50 (MOLT-4): >−4.00; Log10TGI50 (MDA-MB-231/ATCC): −6.76; Log10GI50 (SN12C): −7.31; Log10LC50 (SN12C): −4.88; Log10TGI50 (SN12C): −6.62; Log10GI50 (LOX IMVI): −7.85; Log10LC50 (LOX IMVI): −7.16; Log10TGI50 (LOX IMVI): −7.51
"CC(C)C[C@H](NC(=O)[C@H](COC(F)F)NC(=O)CN1CCOCC1)C(=O)N[C@@H](Cc1ccccc1)C(=O)N[C@@H](CC(C)C)C(=O)[C@@]1(C)CO1 [Example 2, (2S)-N-[(1S)-1-benzyl-2-[[(1S)-3-methyl-1-[(2R)-2-methyloxirane-2-carbonyl]butyl]-amino]-2-oxo-ethyl]-2-[[(2S)-3-(difluoromethoxy)-2-[(2-morpholinoacetyl)amino]propanoyl]amino]-4-methyl-pentanamide]",−7.57,−6.93,−7.81,>−4.00,−7.20,−7.84,−6.49,−7.75,−5.91,−7.30,−7.59,>−4.00,−6.82,<-8.00,−5.79,−7.80,−6.64,−7.34,−7.63,−4.37,Log10LC50 (PC-3): −5.62; Log10LC50 (OVCAR-4): >−4.00; Log10LC50 (MOLT-4): >−4.00; Log10TGI50 (MDA-MB-231/ATCC): −6.79; Log10GI50 (SN12C): −7.40; Log10LC50 (SN12C): −4.92; Log10TGI50 (SN12C): −6.64; Log10GI50 (LOX IMVI): <−8.00; Log10LC50 (LOX IMVI): −7.21; Log10TGI50 (LOX IMVI): −7.62
"CC(C)C[C@H](NC(=O)[C@H](COC(F)F)NC(=O)CN1CCOCC1)C(=O)N[C@@H](Cc1ccccc1)C(=O)N[C@@H](Cc1ccccc1)C(=O)[C@@]1(C)CO1 [Example 3, (2S)-N-[(1S)-1-benzyl-2-[[(1S)-1-benzyl-2-[(2R)-2-methyloxiran-2-yl]-2-oxo-ethyl]amino]-2-oxo-ethyl]-2-[[(2S)-3-(difluoromethoxy)-2-[(2-morpholinoacetyl)-amino]propanoyl]amino]-4-methyl-pentan-amide]",−7.73,−7.04,<−8.00,−4.98,−7.40,−7.88,>−4.00,−7.66,−4.61,−7.11,−7.93,−6.13,−7.17,<−8.00,>−4.00,<−8.00,−6.36,−7.25,<−8.00,−4.81,Log10LC50 (PC-3): −6.09; Log10TGI50 (MDA-MB-231/ATCC): −7.08; Log10GI50 (SN12C): −7.68; Log10LC50 (SN12C): −6.24; Log10TGI50 (SN12C): −6.85; Log10GI50 (LOX IMVI): <−8.00; Log10LC50 (LOX IMVI): −7.13; Log10TGI50 (LOX IMVI): −7.71
"CC(C)C[C@H](NC(=O)[C@H](COC(F)F)NC(=O)CN1CCOCC1)C(=O)N[C@@H](COC(F)F)C(=O)N[C@@H](Cc1ccccc1)C(=O)[C@@]1(C)CO1 [Example 4, (2S)-N-[(1S)-2-[[(1S)-1-benzyl-2-[(2R)-2-methyloxiran-2-yl]-2-oxo-ethyl]amino]-1-(difluoromethoxymethyl)-2-oxo-ethyl]-2-[[(2S)-3-(difluoromethoxy)-2-[(2-mor-pholinoacetyl)amino]propanoyl]amino]-4 methyl-pentanamide]",−7.18,−6.40,−7.58,>−4.00,−6.82,−7.43,−6.34,−7.70,−6.25,−7.25,−7.39,−4.67,−6.59,−7.82,−7.07,−7.43,−6.11,−6.89,−7.45,−4.14,Log10LC50 (PC-3): −4.68; Log10LC50 (OVCAR-4): >−4.00; Log10LC50 (MOLT-4): >−4.00; Log10TGI50 (MDA-MB-231/ATCC): −6.37; Log10GI50 (SN12C): −7.20; Log10LC50 (SN12C): −4.79; Log10TGI50 (SN12C): −6.47; Log10GI50 (LOX IMVI): −7.77; Log10LC50 (LOX IMVI): −7.06; Log10TGI50 (LOX IMVI): −7.42
